Experimental data taken from PubChem BioAssay (NCI).
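Cultured in 96-well plates, cells were exposed to test compound for 48 hours across five concentrations. GI50 is the concentration that inhibits growth by half. The concentration for full growth arrest is given as TGI.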

Legend:
Assay in all cases: NCI tumour cell line growth inhibition, 48 h
[1] = tested on: BT-549 breast
[2] = tested on: SNB-75 CNS
[3] = tested on: A498 renal
[4] = tested on: HT29 colon
[5] = tested on: A549 NSCLC
[6] = tested on: RPMI-8226 leukemia
[7] = tested on: UACC-62 melanoma
[8] = tested on: HOP-92 NSCLC
[9] = tested on: MDA-MB-231 breast
[10] = tested on: SK-OV-3 ovarian

| Structure (SMILES) | TGI [1] [µM] | TGI [2] [µM] | TGI [3] [µM] | TGI [4] [µM] | TGI [5] [µM] | TGI [6] [µM] | TGI [7] [µM] | TGI [8] [µM] | TGI [9] [µM] | TGI [10] [µM] | GI50 [9] [µM] | GI50 [2] [µM] | GI50 [3] [µM] | GI50 [5] [µM] | GI50 [7] [µM] | GI50 [10] [µM] | GI50 [8] [µM] |
| --- | --- | --- | --- | --- | --- | --- | --- | --- | --- | --- | --- | --- | --- | --- | --- | --- | --- |
| O=c1[nH]nc(-c2ccc([N+](=O)[O-])cc2)[nH]1 | > 100 | > 100 | > 100 | > 100 | > 100 | > 100 | > 100 | > 100 | – | – | – | – | – | – | – | – | – |
| O=C(O)C12C3C4(C(=O)O)C1C1(C(=O)O)C2C3(C(=O)O)C41 (stereo not given) | > 100 | > 100 | > 100 | > 100 | > 100 | > 100 | > 100 | > 100 | > 100 | – | – | – | – | – | – | – | – |
| CN(C)CN1C(=O)/C(=N\n2c(-c3ccncc3)n[nH]c2=S)c2ccccc21 | > 100 | > 100 | > 100 | 61.5 | > 100 | – | > 100 | > 100 | > 100 | > 100 | – | – | – | – | – | – | – |
| CC1=CC(O)CC(C)(C)C1/C=C/C(C)=C/C=C/C(C)=C/C=C/C=C(C)/C=C/C=C(C)/C=C/C1=C(C)CC(O)CC1(C)C (stereo not given) | 33.1 | > 100 | – | 30.3 | > 100 | > 100 | 29.8 | 41 | 30.1 | > 100 | – | – | – | – | – | – | – |
| Oc1ccc(C[C@@H]2CN[C@H](Cc3ccc(O)c(Br)c3)CN2)cc1 | > 100 | > 100 | > 100 | > 100 | > 100 | – | > 100 | > 100 | > 100 | > 100 | – | – | – | – | – | – | – |
| CCOC(=O)C(NC(=O)CC)(Nc1ccccc1F)C(F)(F)F (stereo not given) | > 100 | > 100 | – | > 100 | > 100 | > 100 | > 100 | > 100 | > 100 | > 100 | – | – | – | – | – | – | – |
| O=C(/C=C/CC(O)(c1ccccc1)c1ccccc1)Nc1ccccc1Cl | – | > 100 | > 100 | > 100 | – | > 100 | > 100 | > 100 | – | > 100 | – | – | – | – | – | – | – |
| CCc1nc2c([nH]1)C(=O)c1ccccc1C2=O | – | > 100 | > 100 | > 100 | > 100 | – | > 100 | – | – | > 100 | – | – | – | – | – | – | – |
| COC(=O)c1ccc2cc(O)ccc2c1 | > 100 | – | > 100 | > 100 | > 100 | > 100 | > 100 | > 100 | > 100 | > 100 | – | – | – | – | – | – | – |
| O=C(O)CCSc1ncnc2nc[nH]c12 | > 100 | – | > 100 | > 100 | > 100 | > 100 | > 100 | 96.3 | > 100 | > 100 | – | – | – | – | – | – | – |
| CC(=O)N=S(NC(=O)c1ccc(C)cc1)C(Cl)(Cl)Cl (stereo not given) | – | > 100 | – | 60.6 | > 100 | > 100 | > 100 | > 100 | 68 | > 100 | – | – | – | – | – | – | – |
| COc1ccc(C(=O)/C=C/c2ccc(OCCCCCCCCCCOc3ccc(/C=C/C(=O)c4ccc(OC)c(OC)c4)cc3)cc2)c(OC)c1 | – | > 100 | – | > 100 | > 100 | > 100 | > 100 | – | > 100 | > 100 | – | – | – | – | – | – | – |
| CN1C2CCC1C(CO)C(=O)C2 (stereo not given) | > 100 | > 100 | > 100 | – | – | 54.1 | > 100 | > 100 | > 100 | > 100 | – | – | – | – | – | – | – |
| CC1=[N+]([O-])C2(CCCC2)N(O)C1(C)C | – | – | – | > 100 | > 100 | > 100 | > 100 | > 100 | > 100 | > 100 | – | – | – | – | – | – | – |
| COc1ccccc1Cn1c2c(c3cc(O)ccc31)C(=O)c1ccccc1C2=O | > 100 | 58.8 | > 100 | > 100 | > 100 | 45.7 | 82.9 | – | 38.2 | 10 | – | – | – | – | – | – | – |
| COc1cc2c3cc1Oc1cc(ccc1O)C[C@@H]1c4c(cc(OC)c(O)c4Oc4ccc(cc4)C[C@@H]3[N+](C)(C)CC2)CC[N+]1(C)C | > 100 | – | > 100 | > 100 | > 100 | > 100 | > 100 | > 100 | > 100 | – | – | – | – | – | – | – | – |
| CC1CCc2sc3[nH]c(=S)n(C)c(=O)c3c2C1 (stereo not given) | > 100 | > 100 | – | > 100 | > 100 | > 100 | > 100 | 44.5 | > 100 | > 100 | – | – | – | – | – | – | – |
| CCc1ccc(OCc2ccccc2C(=O)Nc2ccc3nc(C)cc(N)c3c2)cc1 | – | 2.59 | 3 | – | 3.27 | – | 3.02 | 2.55 | 2.25 | 3 | 0.846 | 1.28 | 1.5 | 1.56 | 1.6 | 1.64 | 1.16 |
| O=C1CN(c2ccccc2)C(=O)C1C(=O)Nc1ccc(Cl)c(Cl)c1 (stereo not given) | – | 19.2 | – | 17.2 | 15.7 | – | 12.4 | 14.5 | – | 15.8 | – | – | – | – | – | – | – |
| Nc1cc2nc(-c3ccccc3)cn2cn1 | > 100 | > 100 | 80.3 | > 100 | > 100 | > 100 | > 100 | – | > 100 | > 100 | – | – | – | – | – | – | – |
| CC12CCC(=O)[C@@]1(C)CCCC2=O (stereo not given in full) | > 100 | – | – | > 100 | > 100 | – | > 100 | – | > 100 | > 100 | – | – | – | – | – | – | – |
| Cn1c(=O)c2[nH]c(Nc3cccc(Cl)c3)nc2n(C)c1=O | – | > 10 | – | > 10 | > 10 | > 10 | > 10 | 6.56 | > 10 | > 10 | – | – | – | – | – | – | – |
| C=CCN(c1cc(OC)c2[nH]c(C(=O)O)c(C)c2c1[N+](=O)[O-])S(C)(=O)=O | > 100 | > 100 | > 100 | – | > 100 | > 100 | > 100 | – | > 100 | > 100 | – | – | – | – | – | – | – |
| O=C(O[C@@H](/C=C/c1ccccc1)P1(=O)N(Cc2ccccc2)[C@@H]2CCCC[C@H]2N1Cc1ccccc1)c1ccccc1 | > 100 | – | > 100 | > 100 | > 100 | 6.24 | > 100 | 5.52 | 9.18 | > 100 | – | – | – | – | – | – | – |
